According to patent publication US20210038607A1, “OXADIAZOLYLTHIOPHENE DERIVATIVES USEFUL AS HISTONE DEACETYLASE INHIBITORS” (Karus Therapeutics Limited, priority 2018, published 2021):

Columns and labels:
Human HDAC11 = target: T1, Human HDAC11 (Homo sapiens, UniProt Q96DB2); assay: HDAC11 biochemical assay, class IIa-specific substrate; conditions: read-out: HDAC Isoform IC50 (nM) 11
T1 construct: Human HDAC11 (full length); His (N); host or cells: baculovirus expression system
T1 sequence (Q96DB2 1-347): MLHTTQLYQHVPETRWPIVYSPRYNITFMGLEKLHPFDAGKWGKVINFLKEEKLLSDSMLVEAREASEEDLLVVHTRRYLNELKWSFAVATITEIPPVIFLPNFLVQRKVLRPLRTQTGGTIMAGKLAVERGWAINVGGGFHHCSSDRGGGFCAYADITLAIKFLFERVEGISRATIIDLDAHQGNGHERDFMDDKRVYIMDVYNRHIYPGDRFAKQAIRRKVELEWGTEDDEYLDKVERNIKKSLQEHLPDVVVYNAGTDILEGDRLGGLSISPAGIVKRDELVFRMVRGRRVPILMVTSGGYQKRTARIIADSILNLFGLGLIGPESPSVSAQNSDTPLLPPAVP
Method in brief: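 Full-length N-His human HDAC11 from baculovirus, 5 ng/μl, incubated with 50 μM Boc-Lys(trifluoroacetyl)-AMC for 30 min at 30 °C. Buffer: 50 mM Tris-HCl pH 8.0, 137 mM NaCl, 2.7 mM KCl, 1 mM MgCl2, 1 mg/mL BSA, 1% DMSO. Developer releases AMC; fluorescence read at 360/460 nm.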

[1] = target: T2, Complex of human HDAC3 and human NCOR2 (Homo sapiens, UniProt O15379); assay: HDAC3 biochemical assay, AMC-labeled peptide substrate; conditions: read-out: HDAC Isoform IC50 (nM) 3
T2 construct: full length with C-terminal His tag, MW=49.7 kDa; His (C); host or cells: baculovirus expression system (co-expressed)
Method in brief: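 Two-stage fluorogenic read: compounds incubated 1 h at 30° C with 50 μM RHKK(Ac)AMC and 0.1 ng/ul HDAC3–NCOR2(395-489) complex (Tris pH8.0, NaCl, KCl, MgCl2, BSA, 1% DMSO). Developer digestion of deacetylated product gives signal at Ex 360/Em 460.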

Recombinant human HDAC6 = target: T3, Recombinant human HDAC6 (Homo sapiens, UniProt Q9UBN7); assay: HDAC6 biochemical assay, AMC-labeled peptide substrate; conditions: HDAC6; read-out: HDAC Isoform IC50 (nM) 6
T3 construct: full length, MW=159 kDa; GST (N); host or cells: Sf9 insect cells (baculovirus)
T3 sequence (Q9UBN7 1-1215): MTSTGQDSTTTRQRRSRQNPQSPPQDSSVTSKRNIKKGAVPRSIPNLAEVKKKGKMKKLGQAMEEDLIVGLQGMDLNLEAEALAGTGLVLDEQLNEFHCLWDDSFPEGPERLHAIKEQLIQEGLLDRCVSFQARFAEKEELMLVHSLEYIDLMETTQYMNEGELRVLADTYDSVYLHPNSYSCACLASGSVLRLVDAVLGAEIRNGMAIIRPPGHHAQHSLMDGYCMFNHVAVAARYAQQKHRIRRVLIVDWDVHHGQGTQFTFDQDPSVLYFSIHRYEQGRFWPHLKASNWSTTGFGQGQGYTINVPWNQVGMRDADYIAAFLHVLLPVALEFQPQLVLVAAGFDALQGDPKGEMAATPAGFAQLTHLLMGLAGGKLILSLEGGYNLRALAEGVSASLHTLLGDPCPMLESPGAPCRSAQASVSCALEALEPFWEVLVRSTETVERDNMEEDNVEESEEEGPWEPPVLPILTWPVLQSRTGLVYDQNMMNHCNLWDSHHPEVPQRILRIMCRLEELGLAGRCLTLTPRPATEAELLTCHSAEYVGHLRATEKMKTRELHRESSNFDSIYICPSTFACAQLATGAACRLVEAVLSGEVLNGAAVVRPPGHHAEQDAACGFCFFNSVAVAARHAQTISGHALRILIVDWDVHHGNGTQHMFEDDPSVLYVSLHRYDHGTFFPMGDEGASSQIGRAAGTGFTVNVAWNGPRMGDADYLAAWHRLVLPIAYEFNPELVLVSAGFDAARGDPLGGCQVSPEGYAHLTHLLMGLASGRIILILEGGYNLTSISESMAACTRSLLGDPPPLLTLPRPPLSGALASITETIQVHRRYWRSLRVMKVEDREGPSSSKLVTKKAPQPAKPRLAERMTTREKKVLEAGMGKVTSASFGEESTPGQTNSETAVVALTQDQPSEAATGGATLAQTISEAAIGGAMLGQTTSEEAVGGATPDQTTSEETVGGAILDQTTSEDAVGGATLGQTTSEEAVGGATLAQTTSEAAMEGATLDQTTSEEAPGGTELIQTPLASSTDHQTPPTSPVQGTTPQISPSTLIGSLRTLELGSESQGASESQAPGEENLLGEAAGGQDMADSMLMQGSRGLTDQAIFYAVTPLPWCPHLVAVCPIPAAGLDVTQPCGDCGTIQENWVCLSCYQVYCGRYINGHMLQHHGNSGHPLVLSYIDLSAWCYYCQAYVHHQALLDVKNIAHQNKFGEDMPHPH
Method in brief: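 Two-step fluorogenic read-out: enzyme deacetylates 50 μM RHKK(Ac)AMC for 1 h at 30° C in pH 8.0 Tris buffer with BSA and 1% DMSO, then developer cleavage gives signal at Ex 360/Em 460. Enzyme: 0.3 ng/ul recombinant full-length human HDAC6, GST-tagged, Sf9-expressed.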

T2 sequence (O15379 whole entry, canonical isoform): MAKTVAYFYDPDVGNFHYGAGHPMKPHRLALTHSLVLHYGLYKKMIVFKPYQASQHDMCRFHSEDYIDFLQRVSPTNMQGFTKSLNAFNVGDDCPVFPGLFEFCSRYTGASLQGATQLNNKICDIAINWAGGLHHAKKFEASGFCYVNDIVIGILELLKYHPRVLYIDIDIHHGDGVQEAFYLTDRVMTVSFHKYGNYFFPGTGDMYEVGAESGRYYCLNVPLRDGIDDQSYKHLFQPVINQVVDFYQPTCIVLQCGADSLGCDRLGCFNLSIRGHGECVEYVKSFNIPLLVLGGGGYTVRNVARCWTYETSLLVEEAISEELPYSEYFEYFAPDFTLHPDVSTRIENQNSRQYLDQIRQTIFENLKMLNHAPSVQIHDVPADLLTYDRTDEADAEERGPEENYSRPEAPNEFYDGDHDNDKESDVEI
T2 sequence (Q9Y618 395-489 partner limits assumed): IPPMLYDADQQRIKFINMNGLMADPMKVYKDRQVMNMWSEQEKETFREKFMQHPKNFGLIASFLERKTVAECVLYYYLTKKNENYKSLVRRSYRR

IC50 (Human HDAC11) [nM] | IC50 [1] [nM] | IC50 (Recombinant human HDAC6) [nM] | Structure (SMILES)
> 10000 | > 10000 | ≤ 500 | CNC(=O)c1cnnc(N(Cc2ccc(-c3noc(C(F)(F)F)n3)s2)c2cnccn2)c1 [Example DY, N-Methyl-6-[(pyrazin-2-yl)({5-[5-(trifluoromethyl)-1,2,4-oxadiazol-3-yl]thiophen-2-yl}methyl)amino]pyridazine-4-carboxamide]
> 10000 | ≤ 10000 | ≤ 500 | O=C(c1ccc(N(Cc2ccc(-c3noc(C(F)(F)F)n3)s2)c2cnccn2)nn1)N1CCCC1 [Example FI, N-(Pyrazin-2-yl)-6-(pyrrolidine-1-carbonyl)-N-({5-[5-(trifluoromethyl)-1,2,4-oxadiazol-3-yl]thiophen-2-yl}methyl)pyridazin-3-amine]
> 10000 | > 10000 | ≤ 1000 | FC(F)(F)c1nc(-c2ccc(CN(c3cnccn3)c3ncccn3)s2)no1 [Example AS, N-(Pyrimidin-2-yl)-N-({5-[5-(trifluoromethyl)-1,2,4-oxadiazol-3-yl]thiophen-2-yl}methyl)pyrazin-2-amine]
> 10000 | ≤ 10000 | ≤ 500 | O=C(c1cnnc(N(Cc2ccc(-c3noc(C(F)(F)F)n3)s2)c2cnccn2)c1)N1CCCC1 [Example EA, N-(Pyrazin-2-yl)-5-(pyrrolidine-1-carbonyl)-N-({5-[5-(trifluoromethyl)-1,2,4-oxadiazol-3-yl]thiophen-2-yl}methyl)pyridazin-3-amine]
> 10000 | ≤ 10000 | ≤ 500 | COC1CN(C(=O)c2ccc(N(Cc3ccc(-c4noc(C(F)(F)F)n4)s3)c3cnccn3)nn2)C1 [Example DR, 6-(3-Methoxyazetidine-1-carbonyl)-N-(pyrazin-2-yl)-N-({5-[5-(trifluoromethyl)-1,2,4-oxadiazol-3-yl]thiophen-2-yl}methyl)pyridazin-3-amine]
> 10000 | ≤ 10000 | ≤ 500 | O=C(c1cnnc(N(Cc2ccc(-c3noc(C(F)(F)F)n3)s2)c2cnccn2)c1)N1CC(C(F)(F)F)C1 [Example GJ, N-(Pyrazin-2-yl)-N-({5-[5-(trifluoromethyl)-1,2,4-oxadiazol-3-yl]thiophen-2-yl}methyl)-5-[3-(trifluoromethyl)azetidine-1-carbonyl]pyridazin-3-amine]

Structure (SMILES) | IC50 (Human HDAC11) [nM] | IC50 [1] [nM] | IC50 (Recombinant human HDAC6) [nM]
[O-][S+]1CCN(Cc2ccc(N(Cc3ccc(-c4noc(C(F)(F)F)n4)s3)c3cnccn3)nn2)CC1 [Example FO, 4-({6-[(Pyrazin-2-yl)({5-[5-(trifluoromethyl)-1,2,4-oxadiazol-3-yl]thiophen-2-yl}methyl)amino]pyridazin-3-yl}methyl)-1lambda4-thiomorpholin-1-one] | > 10000 | > 10000 | ≤ 500
